Results taken from PMC12678798, “Discovery of an allosteric binding site for anthraquinones at the human P2X4 receptor” (Nature Communications, 2025).
Numbering of substitutions follows the chain as printed. Entries after “also recorded” stand apart in the source; their conditions may differ. Where two headings read alike, the source gives them in different places.

What was measured:
human wt P2X2 receptor = biological target: T1, human wt P2X2 receptor (Homo sapiens, UniProt Q9UBL9); experiment: ATP-induced calcium influx assay, human wt P2X2 receptor in 1321N1 astrocytoma cells; format: cell-based; details: for IC50: wt hP2X2
T1 construct: expressed in transfected cells
T1 sequence (Q9UBL9 1-471): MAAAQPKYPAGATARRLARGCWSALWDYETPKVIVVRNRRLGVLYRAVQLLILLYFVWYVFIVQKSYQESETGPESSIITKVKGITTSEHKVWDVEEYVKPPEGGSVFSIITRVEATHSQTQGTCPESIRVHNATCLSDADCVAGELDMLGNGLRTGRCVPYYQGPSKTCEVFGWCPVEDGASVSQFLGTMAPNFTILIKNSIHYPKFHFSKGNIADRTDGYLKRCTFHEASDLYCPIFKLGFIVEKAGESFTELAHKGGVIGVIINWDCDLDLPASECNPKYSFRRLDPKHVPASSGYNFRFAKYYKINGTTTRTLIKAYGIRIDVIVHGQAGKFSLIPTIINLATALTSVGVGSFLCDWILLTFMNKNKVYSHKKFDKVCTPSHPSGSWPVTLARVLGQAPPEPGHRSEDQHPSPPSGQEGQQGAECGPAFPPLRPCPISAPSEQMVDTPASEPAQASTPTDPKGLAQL

[1] = biological target: T2, chimeric P2X4(P2X2) receptor c6^N208-S216 (Homo sapiens, UniProt Q99571, I209R/N208D/S216R/T211D/T212G); details: ATP at EC80
T2 sequence (Q99571 1-388 N208D/I209R/T211D/T212G/S216R): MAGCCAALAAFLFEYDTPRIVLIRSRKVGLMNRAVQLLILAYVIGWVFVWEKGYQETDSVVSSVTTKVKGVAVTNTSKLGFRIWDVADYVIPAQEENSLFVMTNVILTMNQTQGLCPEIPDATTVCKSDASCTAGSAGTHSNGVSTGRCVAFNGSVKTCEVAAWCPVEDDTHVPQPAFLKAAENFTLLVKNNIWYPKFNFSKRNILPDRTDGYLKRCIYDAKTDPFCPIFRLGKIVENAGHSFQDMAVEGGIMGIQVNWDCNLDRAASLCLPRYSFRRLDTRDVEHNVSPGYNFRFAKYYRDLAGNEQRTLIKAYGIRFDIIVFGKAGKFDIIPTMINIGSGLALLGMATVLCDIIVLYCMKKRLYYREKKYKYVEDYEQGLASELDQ

[2] = biological target: T3, human P2X4-E307T receptor mutant (Homo sapiens, UniProt Q99571, E307T); experiment: ATP-induced calcium influx assay, P2X4-E307T mutant in 1321N1 astrocytoma cells; format: cell-based; details: for Potency increase at P2X4-E307T compared to wt P2X4: ratio of IC50 values, calcium influx
T3 construct: expressed in transfected cells
T3 sequence (Q99571 1-388 E307T): T2 sequence (Q99571 1-388 N208D/I209R/T211D/T212G/S216R) with D208N, R209I, D211T, G212T, R216S, E307T

[3] = biological target: T4, P2X4-Q308T receptor mutant (Homo sapiens, UniProt Q99571, Q308T); details: calcium influx
T4 sequence (Q99571 1-388 Q308T): T2 sequence (Q99571 1-388 N208D/I209R/T211D/T212G/S216R) with D208N, R209I, D211T, G212T, R216S, Q308T

human wt P2X4 receptor = biological target: T5, human wt P2X4 receptor (Homo sapiens, UniProt Q99571); experiment: ATP-induced calcium influx assay, human wt P2X4 receptor in 1321N1 astrocytoma cells; format: cell-based
T5 construct: expressed in transfected cells
T5 sequence (Q99571 1-388): T2 sequence (Q99571 1-388 N208D/I209R/T211D/T212G/S216R) with D208N, R209I, D211T, G212T, R216S

[4] = Physicochemical properties (water solubility, lipophilicity); details: as stated in words
[5] = biological target: T6, P2X4 receptor mutant E307Q (Homo sapiens, UniProt Q99571, E307Q); experiment: TEVC, P2X4-E307Q mutant in Xenopus laevis oocytes; format: cell-based; details: 10 µM ATP, 2 min preincubation, PSB-0704 3 µM, PSB-0739 300 nM and 1 µM
T6 construct: host or cells: Xenopus laevis oocytes injected with cRNA (pNKS2 vector)
T6 sequence (Q99571 whole entry E307Q): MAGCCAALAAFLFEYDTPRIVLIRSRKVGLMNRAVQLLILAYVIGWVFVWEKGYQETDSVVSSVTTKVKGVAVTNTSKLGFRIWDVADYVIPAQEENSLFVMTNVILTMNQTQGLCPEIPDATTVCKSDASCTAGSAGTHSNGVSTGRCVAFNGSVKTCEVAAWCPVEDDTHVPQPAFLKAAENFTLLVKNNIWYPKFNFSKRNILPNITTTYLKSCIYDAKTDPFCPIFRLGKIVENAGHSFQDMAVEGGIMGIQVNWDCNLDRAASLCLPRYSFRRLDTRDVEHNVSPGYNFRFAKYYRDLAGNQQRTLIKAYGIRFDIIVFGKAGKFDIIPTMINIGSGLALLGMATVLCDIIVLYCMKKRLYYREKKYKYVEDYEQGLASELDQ
Experimental: (§1) Xenopus laevis frogs were from Nasco International (Fort Atkinson, WI, USA) and kept at the Core Facility Animal Models (CAM) of the BMC of LMU Munich, Germany (Az: 4.3.2–5682/LMU/BMC/CAM) in accordance with the EU Animal Welfare Act. […] Fifty nanoliters of cRNA (0.5 µg/µL) were injected using a Nanoject II injector (Science Products, Drummond, USA) and oocytes were kept in ND96 (96 mM NaCl, 2 mM KCl, 1 mM MgCl2, 1 mM CaCl2, 5 mM HEPES, pH 7.4–7.5) supplemented with 5 μg/mL gentamicin at 16 °C.
(§2) cDNA encoding human P2X4 receptor (NM_002560.3) was obtained from BioCat GmbH (Heidelberg, Germany) and cloned into the pNKS2 vector[87] using Gibson Assembly (E2621L, New England Biolabs, USA) according to the manufacturer’s instructions. Point mutations were introduced by site-directed mutagenesis using KLD Enzyme Mix (M0554S, New England Biolabs, USA). All constructs were verified by full-length cDNA sequencing (Eurofins Genomics, Germany). Plasmids were linearized with NotI-HF (R3189S, New England Biolabs, USA) and purified using the MinElute Reaction Cleanup Kit (Qiagen, Hilden, Germany). […]
(§3) Statistical analysis was performed with GraphPad Prism version 10 software, and data are presented as means ± SEM. Data were assessed for normality using the Shapiro–Wilk test and for homogeneity of variances using Levene’s test. […]

[6] = biological target: T7, P2X4 receptor mutant E307T_R301K (Homo sapiens, UniProt Q99571, E307T/R301K); experiment: TEVC, double mutant E307T_R301K in Xenopus laevis oocytes; format: cell-based; details: 10 µM ATP, 2 min preincubation
T7 construct: host or cells: Xenopus laevis oocytes injected with cRNA (pNKS2 vector)
T7 sequence (Q99571 whole entry R301K/E307T): as the sequence (Q99571 whole entry E307Q) above, with R301K, Q307T counted along it
Experimental: as §1, §2, §3

[7] = biological target: T8, hP2X4-E307T receptor mutant (Homo sapiens, UniProt Q99571, E307T); experiment: Two-electrode voltage clamp (TEVC), P2X4-E307T in Xenopus laevis oocytes; format: cell-based; details: for Inhibition of ATP-induced current: E307T, 10 µM ATP, 2 min preincubation, PSB-0704 3 µM, PSB-0739 300 nM and 1 µM; for IC50: read-out: pIC50 (inhibition of ATP-induced current) (converted)
T8 construct: host or cells: Xenopus laevis oocytes injected with cRNA (pNKS2 vector)
T8 sequence (Q99571 1-388 E307T): T2 sequence (Q99571 1-388 N208D/I209R/T211D/T212G/S216R) with D208N, R209I, D211T, G212T, R216S, E307T

[8] = biological target: T9, P2X4 receptor mutant E307T_R301A (Homo sapiens, UniProt Q99571, E307T/R301A); experiment: TEVC, double mutant E307T_R301A in Xenopus laevis oocytes; format: cell-based; details: 10 µM ATP, 2 min preincubation
T9 construct: host or cells: Xenopus laevis oocytes injected with cRNA (pNKS2 vector)
T9 sequence (Q99571 whole entry R301A/E307T): as the sequence (Q99571 whole entry E307Q) above, with R301A, Q307T counted along it
Experimental: as §1, §2, §3

[9] = biological target: T10, P2X4 receptor mutant E307T_R82A (Homo sapiens, UniProt Q99571, E307T/R82A); experiment: TEVC, double mutant E307T_R82A in Xenopus laevis oocytes; format: cell-based; details: 10 µM ATP, 2 min preincubation
T10 construct: host or cells: Xenopus laevis oocytes injected with cRNA (pNKS2 vector)
T10 sequence (Q99571 whole entry R82A/E307T): as the sequence (Q99571 whole entry E307Q) above, with R82A, Q307T counted along it
Experimental: as §1, §2, §3

[10] = biological target: T11, P2X4 receptor mutant E307T_K298A (Homo sapiens, UniProt Q99571, E307T/K298A); experiment: TEVC, double mutant E307T_K298A in Xenopus laevis oocytes; format: cell-based; details: 10 µM ATP, 2 min preincubation
T11 construct: host or cells: Xenopus laevis oocytes injected with cRNA (pNKS2 vector)
T11 sequence (Q99571 whole entry K298A/E307T): as the sequence (Q99571 whole entry E307Q) above, with K298A, Q307T counted along it
Experimental: as §1, §2, §3

[11] = biological target: T12, chimeric P2X4(P2X2) receptor c10^R301-Q308 (Homo sapiens, UniProt Q99571, A304N/D302K/DEL301-301/E307T/L303I/N306T/Q308T); experiment: ATP-induced calcium influx assay, chimeric receptor c10 in 1321N1 astrocytoma cells; format: cell-based
T12 construct: expressed in transfected cells; gene synthesis (Geneart), pLVX-IRES-mCherry (bicistronic, mCherry not fused)
T12 sequence (Q99571 with tags, fused parts or gaps DEL301-301/D302K/L303I/A304N/N306T/E307T/Q308T): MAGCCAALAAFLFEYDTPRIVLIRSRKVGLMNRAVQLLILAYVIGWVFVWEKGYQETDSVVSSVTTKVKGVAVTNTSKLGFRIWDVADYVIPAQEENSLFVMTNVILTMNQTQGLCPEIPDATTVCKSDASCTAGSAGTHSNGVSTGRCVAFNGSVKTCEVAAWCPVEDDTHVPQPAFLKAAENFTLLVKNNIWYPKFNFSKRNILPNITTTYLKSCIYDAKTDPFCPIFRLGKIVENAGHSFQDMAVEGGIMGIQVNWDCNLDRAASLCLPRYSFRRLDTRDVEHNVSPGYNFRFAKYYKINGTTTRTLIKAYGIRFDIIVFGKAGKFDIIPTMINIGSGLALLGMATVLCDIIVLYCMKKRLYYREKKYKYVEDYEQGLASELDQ

| SMILES | Kind of modulation at an EC20 of ATP (human wt P2X2 receptor; P2X2, ATP […] (EC20)) | IC50 (human wt P2X2 receptor; ATP at EC80, read-out: IC50) [nM] | IC50 (human wt P2X2 receptor; read-out: pIC50 ± SEM (n value) (converted)) [nM] | Kind of modulation (shape of concentration-response curve) [1] | Potency increase at P2X4-E307T compared to wt P2X4 [2] [fold] | Potency at P2X4-Q308T compared to wt P2X4 [3] | Enhancement of the ATP effect at low concentrations (human wt P2X4 receptor; wt P2X4, ATP at EC80) | Kind of modulation (shape of concentration-response curve) (human wt P2X4 receptor; wt P2X4, ATP at EC80) | Water solubility [4] | Inhibition of ATP-induced current [5] | Effect of mutation on antagonist potency (vs E307T) [6] | IC50 [2] [nM] | Inhibition of ATP-induced current [7] | IC50 [7] [nM] | Effect of mutation on antagonist potency (vs E307T) [8] | IC50 (human wt P2X4 receptor) [nM] | Effect of mutation on antagonist potency (vs E307T) [9] | Effect of mutation on antagonist potency (vs E307T) [10] | IC50 [11] [nM] |
| --- | --- | --- | --- | --- | --- | --- | --- | --- | --- | --- | --- | --- | --- | --- | --- | --- | --- | --- | --- |
| Nc1c(S(=O)(=O)O)cc(Nc2ccc(Nc3nc(Cl)nc(Nc4ccccc4S(=O)(=O)O)n3)c(S(=O)(=O)O)c2)c2c1C(=O)c1ccccc1C2=O [Cibacron Blue] | no clear activating effect | 13100 | 12600 | biphasic modulation | 680 | similar | up to 141% | biphasic modulation | water-soluble | – | – | – | – | – | – | – | – | – | – |
| Nc1c(C(=O)O)cc(Nc2ccc(Nc3ccccc3)c(C(=O)O)c2)c2c1C(=O)c1ccccc1C2=O [PSB-0704] | – | – | – | – | > 170 | – | – | – | water-soluble | strong inhibition | similarly potent; also recorded: no consequences | 72.4 ± 10.2 | strong inhibition | 1620 | reduction in inhibitory potency | 12500 ± 1900 | reduction in inhibitory potency | reduction in inhibitory potency | – |
| Nc1c(S(=O)(=O)O)cc(Nc2ccc(Nc3ccccc3)c(S(=O)(=O)O)c2)c2c1C(=O)c1ccccc1C2=O [PSB-0739] | – | – | – | – | – | – | – | – | – | strong inhibition | similarly potent; also recorded: no consequences | 35.3 ± 4.7 | strong inhibition | 324 | reduction in inhibitory potency | 8910 ± 670 | reduction in inhibitory potency | reduction in inhibitory potency | 3.41 ± 0.49 |
